Values belong to the molecule of their own block, whether it stands above or below them. Peptide text beside a SMILES is read from it.
Assays:
Androgen receptor/PELP1 = Androgen receptor/PELP1 (Homo sapiens, UniProt P10275+Q8IZL8); assay: Inhibition of full length AR/PELP1 (unknown origin) interaction expressed in human LNCaP cells preincubated for 2 hrs followed by DHT addition measured after 24 hrs by Western blot analysis; format: cell-based
Estrogen receptor [1] = molecular target: T1, Estrogen receptor (Homo sapiens, UniProt P03372); assay: Inhibition of full length human ERalpha expressed in human HEC1 cells in presence of estradiol by luciferase reporter gene assay; format: cell-based
T1 sequence (P03372 whole entry): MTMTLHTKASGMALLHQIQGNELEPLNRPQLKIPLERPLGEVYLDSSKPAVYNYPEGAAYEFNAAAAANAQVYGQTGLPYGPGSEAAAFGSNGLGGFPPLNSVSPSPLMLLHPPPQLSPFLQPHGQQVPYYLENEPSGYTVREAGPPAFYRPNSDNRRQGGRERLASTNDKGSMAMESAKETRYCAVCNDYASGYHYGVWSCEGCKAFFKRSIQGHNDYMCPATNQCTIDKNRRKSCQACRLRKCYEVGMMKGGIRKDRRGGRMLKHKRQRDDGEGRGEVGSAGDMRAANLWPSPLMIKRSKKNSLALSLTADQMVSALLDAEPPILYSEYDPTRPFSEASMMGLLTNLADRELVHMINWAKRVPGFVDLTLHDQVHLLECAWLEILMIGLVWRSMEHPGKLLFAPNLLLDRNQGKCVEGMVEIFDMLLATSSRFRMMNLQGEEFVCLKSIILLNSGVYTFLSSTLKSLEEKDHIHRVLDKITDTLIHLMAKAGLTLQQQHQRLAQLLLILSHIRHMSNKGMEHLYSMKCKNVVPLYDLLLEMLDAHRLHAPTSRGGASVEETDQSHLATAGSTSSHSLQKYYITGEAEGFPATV

[2] = molecular target: T2, Retinoic acid receptor RXR-alpha (Homo sapiens, UniProt P19793)
T2 sequence (P19793 whole entry): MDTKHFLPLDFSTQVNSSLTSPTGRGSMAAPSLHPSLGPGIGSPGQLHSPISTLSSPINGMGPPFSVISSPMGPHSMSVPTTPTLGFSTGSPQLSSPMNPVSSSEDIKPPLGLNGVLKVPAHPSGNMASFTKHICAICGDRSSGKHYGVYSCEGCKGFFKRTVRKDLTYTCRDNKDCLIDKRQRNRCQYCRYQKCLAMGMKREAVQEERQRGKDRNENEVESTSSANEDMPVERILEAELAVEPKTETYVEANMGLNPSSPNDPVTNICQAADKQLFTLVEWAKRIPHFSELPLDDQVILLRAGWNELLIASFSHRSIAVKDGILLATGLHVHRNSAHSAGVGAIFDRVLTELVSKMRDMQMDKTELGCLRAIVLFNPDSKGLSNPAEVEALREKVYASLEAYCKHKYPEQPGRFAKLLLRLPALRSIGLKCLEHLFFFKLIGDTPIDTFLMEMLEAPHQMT
Description: Binding affinity to human GST-tagged RXRalpha ligand binding domain (223 to 462 residues) expressed in Escherichia coli BL21 assessed as inhibition of 9-cis-RA-induced coactivator recruitment by TR-FRET assay

Estrogen receptor [3] = molecular target: T1, Estrogen receptor; assay: Displacement of fluorescein-labeled PGC1alpha peptide from human GST-tagged ERalpha LBD after 2 hrs in presence of estradiol-beta by TR-FRET assay
Estrogen receptor [4] = molecular target: T1, Estrogen receptor; assay: Displacement of europium-labeled SRC1 peptide from full length human recombinant ERalpha expressed in baculovirus expression system after 1.5 hrs in presence of estradiol-beta by TR-FRET assay
Androgen receptor = molecular target: T3, Androgen receptor (Homo sapiens, UniProt P10275); assay: Inhibition of AR transcriptional activity in human ARR2PB-eGFP expressing LNCaP cells after 3 days by fluorescence assay; format: cell-based
T3 sequence (P10275 whole entry): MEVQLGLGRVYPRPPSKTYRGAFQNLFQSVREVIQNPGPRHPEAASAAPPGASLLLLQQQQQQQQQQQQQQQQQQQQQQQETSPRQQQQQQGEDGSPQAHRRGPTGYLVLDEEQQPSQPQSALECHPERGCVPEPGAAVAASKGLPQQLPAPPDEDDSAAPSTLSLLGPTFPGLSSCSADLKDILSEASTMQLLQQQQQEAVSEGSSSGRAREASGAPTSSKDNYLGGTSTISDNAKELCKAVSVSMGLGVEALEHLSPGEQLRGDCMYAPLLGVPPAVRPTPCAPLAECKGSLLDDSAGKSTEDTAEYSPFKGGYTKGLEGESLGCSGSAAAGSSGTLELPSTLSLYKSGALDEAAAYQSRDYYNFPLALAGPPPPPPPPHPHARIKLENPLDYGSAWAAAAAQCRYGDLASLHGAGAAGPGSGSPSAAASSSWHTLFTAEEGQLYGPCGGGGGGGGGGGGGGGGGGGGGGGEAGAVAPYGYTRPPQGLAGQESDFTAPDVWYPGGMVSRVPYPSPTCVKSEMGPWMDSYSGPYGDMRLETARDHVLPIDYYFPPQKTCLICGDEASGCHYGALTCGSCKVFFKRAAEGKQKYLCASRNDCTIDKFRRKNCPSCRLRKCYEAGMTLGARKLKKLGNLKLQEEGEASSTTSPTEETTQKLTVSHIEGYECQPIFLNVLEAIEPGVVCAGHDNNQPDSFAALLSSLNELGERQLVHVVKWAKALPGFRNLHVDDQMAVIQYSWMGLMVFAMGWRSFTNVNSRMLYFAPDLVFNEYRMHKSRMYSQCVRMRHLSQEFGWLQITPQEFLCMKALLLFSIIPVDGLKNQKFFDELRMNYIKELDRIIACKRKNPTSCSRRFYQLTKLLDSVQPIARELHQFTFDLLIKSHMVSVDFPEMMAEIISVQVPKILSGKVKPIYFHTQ

[5] = molecular target: T4, Peroxisome proliferator-activated receptor alpha (Homo sapiens, UniProt Q07869); assay: Displacement of 5-FAM-labeled NBM131 from human PPARalpha ligand binding domain expressed in human HepG2 cells by fluorescence polarization assay
T4 sequence (Q07869 whole entry): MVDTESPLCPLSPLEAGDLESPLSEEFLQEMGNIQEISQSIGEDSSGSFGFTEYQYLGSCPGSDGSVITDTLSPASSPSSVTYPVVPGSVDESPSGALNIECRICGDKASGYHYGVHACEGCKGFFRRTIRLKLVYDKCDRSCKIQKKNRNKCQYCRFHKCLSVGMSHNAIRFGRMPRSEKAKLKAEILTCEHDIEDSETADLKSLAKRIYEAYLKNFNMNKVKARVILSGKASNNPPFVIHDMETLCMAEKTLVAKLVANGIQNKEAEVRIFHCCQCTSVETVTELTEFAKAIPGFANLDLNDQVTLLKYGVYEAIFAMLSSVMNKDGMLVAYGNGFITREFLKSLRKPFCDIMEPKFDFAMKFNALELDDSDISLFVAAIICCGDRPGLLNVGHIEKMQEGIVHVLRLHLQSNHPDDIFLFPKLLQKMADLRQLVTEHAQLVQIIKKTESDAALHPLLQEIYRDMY

[6] = molecular target: T5, Peroxisome proliferator-activated receptor gamma (Homo sapiens, UniProt P37231); assay: Displacement of 5-FAM-labeled NBM131 from human PPARgamma ligand binding domain expressed in human HepG2 cells by fluorescence polarization assay
T5 sequence (P37231 whole entry): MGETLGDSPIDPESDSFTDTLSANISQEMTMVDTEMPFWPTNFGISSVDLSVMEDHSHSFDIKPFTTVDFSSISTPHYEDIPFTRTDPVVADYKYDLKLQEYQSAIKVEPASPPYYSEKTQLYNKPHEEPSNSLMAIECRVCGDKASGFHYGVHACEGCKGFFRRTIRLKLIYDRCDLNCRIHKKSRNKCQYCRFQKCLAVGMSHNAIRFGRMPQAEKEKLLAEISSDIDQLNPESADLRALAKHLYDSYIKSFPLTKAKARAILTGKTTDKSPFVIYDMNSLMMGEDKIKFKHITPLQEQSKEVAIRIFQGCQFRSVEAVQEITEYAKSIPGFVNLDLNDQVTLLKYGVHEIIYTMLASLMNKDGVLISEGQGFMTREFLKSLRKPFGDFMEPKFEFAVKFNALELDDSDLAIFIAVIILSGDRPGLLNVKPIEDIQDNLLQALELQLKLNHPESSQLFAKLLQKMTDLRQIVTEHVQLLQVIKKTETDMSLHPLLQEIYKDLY

Chain of Androgen receptor/PELP1 (Q8IZL8 whole entry, one chain of several): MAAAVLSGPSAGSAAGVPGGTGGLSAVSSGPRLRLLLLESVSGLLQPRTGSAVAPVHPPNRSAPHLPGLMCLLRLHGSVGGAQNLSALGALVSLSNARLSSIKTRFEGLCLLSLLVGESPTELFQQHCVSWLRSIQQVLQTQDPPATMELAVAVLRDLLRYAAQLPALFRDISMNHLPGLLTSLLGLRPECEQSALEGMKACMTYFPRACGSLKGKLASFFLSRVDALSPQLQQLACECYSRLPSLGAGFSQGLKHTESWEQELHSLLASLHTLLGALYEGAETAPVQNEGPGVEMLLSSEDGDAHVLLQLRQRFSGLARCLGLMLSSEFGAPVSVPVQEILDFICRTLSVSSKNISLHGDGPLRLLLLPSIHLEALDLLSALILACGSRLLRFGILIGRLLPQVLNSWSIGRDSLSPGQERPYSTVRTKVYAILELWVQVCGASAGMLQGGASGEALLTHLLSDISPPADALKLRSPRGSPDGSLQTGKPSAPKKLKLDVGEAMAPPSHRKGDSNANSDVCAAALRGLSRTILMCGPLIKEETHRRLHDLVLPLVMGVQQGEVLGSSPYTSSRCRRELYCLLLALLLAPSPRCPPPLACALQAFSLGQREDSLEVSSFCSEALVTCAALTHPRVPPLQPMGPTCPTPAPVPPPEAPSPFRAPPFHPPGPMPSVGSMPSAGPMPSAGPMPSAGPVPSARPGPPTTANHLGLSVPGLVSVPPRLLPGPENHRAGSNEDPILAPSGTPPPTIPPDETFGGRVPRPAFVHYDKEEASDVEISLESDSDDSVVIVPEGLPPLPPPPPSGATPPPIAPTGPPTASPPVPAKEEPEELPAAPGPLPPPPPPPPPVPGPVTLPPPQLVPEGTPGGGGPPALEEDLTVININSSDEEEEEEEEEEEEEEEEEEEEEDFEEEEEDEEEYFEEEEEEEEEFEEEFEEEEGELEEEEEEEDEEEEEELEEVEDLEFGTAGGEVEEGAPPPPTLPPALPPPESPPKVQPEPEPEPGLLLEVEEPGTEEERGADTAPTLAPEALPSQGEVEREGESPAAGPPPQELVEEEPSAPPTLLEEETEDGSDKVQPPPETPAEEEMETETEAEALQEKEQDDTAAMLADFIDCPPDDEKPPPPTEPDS

Compound: COC(=O)c1ccc(NC(=O)c2ccc([N+](=O)[O-])c(OCC(C)C)c2)c(OCC(C)C)c1
IC50 (Androgen receptor/PELP1): 40 nM

Compound: CC1=C(CCc2nnn[nH]2)c2cc(F)ccc2/C1=C\c1ccc(C(C)C)cc1
IC50 [2]: 10000 nM

Compound: O=C1NN(c2ccc(Cl)c(Cl)c2)C(=O)C1Cc1c[nH]c2ccccc12 (stereo not given)
IC50 (Estrogen receptor [3]): 2460 nM

Compound: CC[C@H](C)[C@@H]1NC(=O)[C@H](NC(=O)[C@@H](N)CCCCN)CSSC[C@@H](C(=O)N[C@@H](CCCNC(=N)N)C(=O)N[C@@H](CC(C)C)C(=O)N[C@@H](CC(C)C)C(=O)N[C@@H](CCC(N)=O)C(=O)O)NC(=O)[C@H](CC(C)C)NC1=O
Ki (Estrogen receptor [4]): 25 nM

Compound: c1ccc2c(c1)CC(c1c[nH]c3ccccc13)N2 (stereo not given)
IC50 (Androgen receptor): 310 nM

Compound: CCOc1cc(Br)cc(CNNC(=O)c2ccc3c(c2)OCCO3)c1O
IC50 (Estrogen receptor [3]): 2980 nM

Continued, values first:

IC50 (Estrogen receptor [1]): 2300 nM
Compound: O=C(CCCCn1c(=S)[nH]c2ccccc2c1=O)N1CCN(c2ccc(C(F)(F)F)cc2)CC1

IC50 (Estrogen receptor [1]): 6300 nM
Compound: CC(C)NC(=O)CSc1nc2ccc(NC(=O)CSc3cccc(Cl)c3)cc2s1

Kd [5]: 80 nM | Kd [6]: 80 nM
Compound: CC(C)C[C@H](NC(=O)[C@H](Cc1ccccc1)NC(=O)[C@H](CCC(N)=O)NC(=O)[C@@H](NC(=O)[C@H](CC(C)C)NC(=O)[C@H](CC(C)C)NC(=O)[C@@H]1CCCN1C(=O)[C@H](Cc1cnc[nH]1)NC(=O)[C@H](CC(C)C)NC(=O)[C@H](CCC(N)=O)NC(=O)[C@@H](NC(=O)[C@@H]1CCCN1C(=O)[C@@H]1CCCN1C(=O)[C@@H](NC(=O)[C@@H](NC(=O)[C@H](C)N)[C@@H](C)O)[C@@H](C)O)[C@@H](C)O)[C@@H](C)O)C(=O)N[C@@H](CCCNC(=N)N)C(=O)N[C@H](C(=O)N[C@@H](CC(=O)O)C(=O)O)[C@@H](C)O (H-ATTPPTQLHPLLTQFLRTD-OH)
